Assay results taken from patent US4533665A, “[[Bis(aryl)methylene]-1-piperidinyl]alkyl-pyrimidinones” (Janssen Pharmaceutica, priority 1984, dated 1985).

Target: T1, S2-receptor (Rattus norvegicus, UniProt P14842)
T1 construct: Caudal arteries from fasted male rats; from tissue; host or cells: rat caudal artery, helical strips
Assay: antagonistic activity on the effect of serotonin on the caudal artery of the rat (caudal artery test)
Settings: rat caudal artery strips; serotonin 40 ng/ml; 5 minutes after adding the drug; read-out: ED50 (minimal concentration which reduces the amplitude of the serotonin-induced contraction to at least 50% of its normal value) (converted)
Protocol: ANTAGONISTIC ACTIVITY ON THE EFFECT OF SEROTONIN ON THE CAUDAL ARTERY OF THE RAT
Caudal arteries from fasted male rats (210-235 g) were used in the test. […] Submaximal contractions of the arterial strips were produced by adding single doses of serotonin (40 ng/ml) to the organ bath for 2 minutes with each time an interval of 10 minutes. The amplitude of the contraction was measured before and 5 minutes after adding the drug. After washing out, the agonist was added again three times in order to see whether the contraction was restored and normalized. […] In this connection the ED50 -values are the minimal concentrations of the concerned drugs which reduce the amplitude of the contraction to at least 50% of its normal value.

T1 sequence (P14842 whole entry): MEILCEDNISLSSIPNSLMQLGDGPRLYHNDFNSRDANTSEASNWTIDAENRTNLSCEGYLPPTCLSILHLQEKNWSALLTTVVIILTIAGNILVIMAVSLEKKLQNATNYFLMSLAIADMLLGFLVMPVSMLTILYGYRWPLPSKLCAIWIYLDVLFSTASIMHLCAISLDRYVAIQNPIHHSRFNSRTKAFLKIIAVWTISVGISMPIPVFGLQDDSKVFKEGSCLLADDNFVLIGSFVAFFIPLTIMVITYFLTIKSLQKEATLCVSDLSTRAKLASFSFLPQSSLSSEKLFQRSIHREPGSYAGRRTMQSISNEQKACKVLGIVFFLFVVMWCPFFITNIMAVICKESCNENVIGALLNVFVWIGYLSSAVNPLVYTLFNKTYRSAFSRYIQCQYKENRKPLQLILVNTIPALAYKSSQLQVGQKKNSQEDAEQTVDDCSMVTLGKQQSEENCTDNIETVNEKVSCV

| SMILES | IC50 [pM] |
| --- | --- |
| Cc1ccc(C(=C2CCN(CCc3c(C)nc4n(c3=O)CCCC4)CC2)c2ccccc2)cc1 [Compound 71] | 0.705 |
| Cc1nc2sccn2c(=O)c1CCN1CCC(=C(c2ccccc2)c2ccccc2)CC1 [Compound 4] | 0.362 |
